Measured values reported in US20060134779A1, “Modulation of cell intrinsic strain to control cell modulus, matrix synthesis, secretion, organization, material properties and remodeling of tissue engineered constructs” (priority 2004, published 2006).
Entries after “also recorded” stand apart in the source; their conditions may differ.

Assays:
gel matrix = assay: Gel matrix contraction in a culture system; type: cell-based
cell modulus = conditions: cited from earlier work
elastin = assay: Quantitative RT-PCR gene expression in BATs: elastin; type: cell-based, human
Experimental: (§1) Primary human tendon internal fibroblasts (HTIFs) were isolated from discarded human tendon tissue as described previously (Banes et al., J. Ortho Res., 6, 73-82, 1988). HTIFs from passage 2 to 4 were used in this study. BATs™ were fabricated at a cell density of 2 million cells/ml collagen gel suspension (Vitrogen). Cells were incubated at 37° C. for 24 h before addition of 100 pM IL-1β and inhibitors. BAT™ images were recorded with a scanner and automated imaging software, ScanFlex™ (Flexcell International Corp.). Medium was refreshed every 24 h. On day 5, BATs™ were collected, total RNA extracted with an RNeasy mini kit (QIAGen), cDNA synthesized with SuperScriptII (Invitrogen) and quantitative PCR carried out using a quantitative PCR kit from Ambion. The PCR products were separated on 2% agarose gels and the bands were quantitated in Photoshop. The elasticity of BATs™ was tested on day 5. BATs™ were subjected to a maximum stretch (20% elongation, 1 Hz for 1 h) and the BAT™ images were recorded for 24 h after stretch.

β-actin [1] = assay: β-actin expression by quantitative RT-PCR in HTIFs; type: cell-based, human; conditions: for reduction of the message of β-actin: 24 h post addition
Experimental: Primary HTIFs were isolated after surgery from discarded human tendon tissue as described previously (Banes et al., J. Ortho Res., 6, 73-82, 1988). HTIFs from passage 2 to 4 were used in this study. HTIFs were allowed to attach and spread for 24 h before addition of 100 pM IL-1β. Medium was refreshed every 24 h. […] Young's modulus of HTIFs was measured by aspirating a cell into the bore of a calibrated micropipette with a calibrated vacuum source. The cell-aspiration process was videotaped for subsequent data analysis to calculate the pipette bore size, the steady state pressure required to aspirate a segment of a cell into the pipette bore and the time constant for aspiration. Cytoskeleton change was monitored by rhodamine-phalloidin staining. The expression levels of β-actin was determined by quantitative RT-PCR. Total RNA was extracted with an RNeasy mini kit (QIAGen), cDNA was synthesized with SuperScriptII (Invitrogen) and quantitative PCR was carried out using 18S rRNA as an internal control (Ambion). The PCR products were separated on 2% agarose gels and pixel intensity of the bands was quantitated in Photoshop.

[2] = system: human tendon internal fibroblast (HTIF)-populated bioartificial tendons (BATs); assay: Elasticity of BATs: length recovery after maximum stretch; type: cell-based; conditions: 100 pM IL-1β
Excerpt: In order to find a better therapeutic method for tendon/ligament repair and/or replacement, several in vitro models for engineered tendon have been developed recently (Awad et al., J. Biomed. Mater Res., 51(2), 233-240, 2000). One of them is a BioArtificial Tendon (BAT™) model system utilizing tenocyte-populated molded collagen gels (Awad et al., J. Biomed. Mater Res., 51(2), 233-240, 2000). This 3D BAT™ system allows the testing of tenocyte responses to drugs, cytokines and mechanical loading but is too weak to replace conventional grafts materials. In an attempt to modulate the material properties of the cell-gel composite, the influence of IL-1β on the elasticity of human tendon internal fibroblast (HTIF)-populated bioartificial tendons (BATs™) was investigated. IL-1β has been reported to increase the expression of matrix metalloproteinases (MMPs) and elastin. It was hypothesized that IL-1 might increase the elasticity of BATs™ by up-regulating the expression of elastin and down-regulating matrix protein (Collagen type I) expression. Gene expression was quantified with quantitative RT-PCR. The elasticity of BATs™ was determined by length recovery after stretch. The influence of IL-1β on the actin cytoskeleton and integrin attachment to matrix in BATs™ also was tested +/−cytochalasin D or GRGDTP, respectively.
as §1, with “BATs™ were fabricated at a cell density of 2 million cells/ml collagen gel suspension (Vitrogen). Cells were incubated at 37° C. for 24 h before addition of 100 pM IL-1β and inhibitors.” left out, “Medium was refreshed every 24 h.” left out, “The elasticity of BATs™ was tested on day 5.” left out

[3] = system: human tendon internal fibroblasts (HTIFs); assay: Young's modulus of HTIFs by micropipette aspiration; type: cell-based; conditions: young and adult patients (FIG. 13)
Experimental: (§2) Primary HTIFs were isolated after surgery from discarded human tendon tissue as described previously (Banes et al., J. Ortho Res., 6, 73-82, 1988). HTIFs from passage 2 to 4 were used in this study. HTIFs were allowed to attach and spread for 24 h before addition of 100 pM IL-1β. Medium was refreshed every 24 h. On day 5, cells were collected for cell modulus measurement and gene expression analysis. Young's modulus of HTIFs was measured by aspirating a cell into the bore of a calibrated micropipette with a calibrated vacuum source. The cell-aspiration process was videotaped for subsequent data analysis to calculate the pipette bore size, the steady state pressure required to aspirate a segment of a cell into the pipette bore and the time constant for aspiration. Cytoskeleton change was monitored by rhodamine-phalloidin staining. The expression levels of β-actin was determined by quantitative RT-PCR. Total RNA was extracted with an RNeasy mini kit (QIAGen), cDNA was synthesized with SuperScriptII (Invitrogen) and quantitative PCR was carried out using 18S rRNA as an internal control (Ambion). The PCR products were separated on 2% agarose gels and pixel intensity of the bands was quantitated in Photoshop.

MMPs 1, 2, 3 = assay: Quantitative RT-PCR gene expression in BATs: MMPs; type: cell-based, human; conditions: 100 pM IL-1β, day 5
Experimental: as §1

Collagen type I = assay: Quantitative RT-PCR gene expression in BATs: Collagen type I; type: cell-based, human; conditions: 100 pM IL-1β, day 5
Experimental: as §1

[4] = system: human tendon internal fibroblast (HTIF) populated bioartificial tendons (BATs); assay: Material properties (modulus) of HTIF-populated BATs; type: cell-based
[5] = system: human tendon internal fibroblast (HTIF)-populated bioartificial tendons (BATs); assay: Contraction of HTIF-populated BATs (scanner imaging); type: cell-based; conditions: 100 pM IL-1β, 24 h post addition
Experimental: as §1

β-actin [6] = assay: Cytoskeleton change by rhodamine-phalloidin staining in HTIFs; type: cell-based, human; conditions: 100 pM IL-1β
Experimental: as §2

[7] = 20% elongation, 1 Hz for 1 h, day 5

Nc1ncnc2c1ncn2[C@@H]1O[C@H](COP(=O)(O)OP(=O)(O)OP(=O)(O)O)[C@@H](O)[C@H]1O [ATP, adenosine triphosphate]
gel matrix contraction (gel matrix): retard

C=C1[C@@H](C)[C@H]2[C@H](Cc3ccccc3)NC(=O)[C@]23[C@H](OC(C)=O)/C=C/[C@@](C)(O)C(=O)[C@@H](C)C/C=C/[C@H]3[C@@H]1O [cytochalasin D]
decrease of cell modulus (cell modulus): up to three fold

GRGDTP
elastin mRNA level (elastin; 100 μg/ml GRGDTP alone): did not affect
stimulation of elastin mRNA by IL-1 (elastin; 100 μg/ml GRGDTP with 100 pM IL-1β): reduced

interleukin-1beta [IL-1β]
reduction of the message of β-actin (β-actin [1]; 100 pM IL-1β, 2D cultures): more than 50%
reduction of the message of β-actin (β-actin [1]; 100 pM IL-1β, 3D cultures): more than 50%
message level of β-actin (β-actin [1]; 100 pM IL-1β, day 3, 3D cultures): returned to normal
expression of β-actin (β-actin [1]; 2D cultures, days 1 and 3 (FIG. 14A)): reduced
elasticity of BATs ([2]; tested on day 5): increased
survival of maximum stretch [2, 7]: survived
time for elongated BATs to recover to original length post stretch [2, 7]: 8 h
cell modulus of monolayer HTIFs [3]: reduced
expression of MMPs 1, 2, 3 (MMPs 1, 2, 3): up-regulated; also recorded: up-regulation
expression of Collagen type I (Collagen type I): down-regulated
modulus of BATs [4]: reduced
expression of elastin (elastin; 100 pM IL-1β, day 5): up-regulated
contraction of BATs [5]: reduced
cells with cytoskeletal structure disrupted (β-actin [6]; 2D cultures): about 20%
protein level of β-actin (β-actin [6]; 2D cultures, day 3): further reduced
protein level of β-actin (β-actin [6]; 2D cultures, day 5): mostly recovered
increase of intercellular space at the perpendicular direction of BATs (β-actin [6]; 3D BATs, days 1 and 3): more than 100%
fluorescence intensity of rhodamine-phalloidin staining compared to control (β-actin [6]; 3D bioartificial tendons, day 5): much lower
protein level of β-actin (β-actin [6]; rhodamine-phalloidin staining): down regulated
